Source: patent US20080287384A1, “Methods of Identifying Agents Having Antiangiogenic Activity” (priority 2005, published 2008)

Columns and labels:
HMVECs [1] = test: Cell morphology / actin stress fiber staining; type: cell-based, human; settings: treated or lentivirus-transduced
HMVECs [2] = test: Endothelial cell migration assay (modified Boyden chamber); type: cell-based, human
Method: Endothelial Cell Migration Assay-The endothelial cell migration assay was performed as described in, […], Methods Mol Med. 78: 337-47 (2003), incorporated herein by reference. Briefly, HMVECs were starved overnight in media containing 0.1% bovine serum albumin (BSA), harvested, resuspended in DME with 0.1% BSA, plated on the bottom side of a modified Boyden chamber (Nucleopore Corporation, MD), and allowed to attach in the inverted chamber for 2 hours at 37° C. The chamber was then re-inverted, test substances added to the wells of the upper chamber and cells were allowed to migrate for four hours at 37° C. Membranes were recovered, fixed and stained and the number of cells that had migrated to the upper chamber per ten high power fields was counted. Background migration in DME+0.1% BSA was subtracted and the data reported as the number of cells migrated per 10 high power fields (400×). VEGF (R&D Systems, Minneapolis, Minn.) was used as a positive control at a concentration of 100 pg/ml.

Rap1 = type: cell-based, human; settings: HMVECs
Method: Briefly, cells are lysed in a suitable lysis buffer and clarified by centrifugation. Clarified lysates are incubated with a GST fusion protein containing the Rap-1 binding domain of Ral-GDS coupled to glutathione-sepharose beads. Proteins bound to the beads are then extracted and resolved by sodium dodecyl sulfate-polyacrylamide gel electrophoresis (SDS-PAGE) and subjected to western blot analysis using anti-Rap-1 antibodies.
Rap1 pull down assay—HMVECs were grown to subconfluent in 100 mm plates, starved in EBM2 medium plus 0.1% BSA over night and treated as indicated.

[3] = test system: HMVECs in scaffolds implanted in SCID mice; test: SCID mouse model of human angiogenesis, in vivo microvessel density; settings: daily local injection for 5 days
Excerpt: A further assay for evaluating inhibition of tubule formation suitable for use in the presently described methods is an in vivo assay of microvessel density. In this regard, functional human microvessels can be engineered in SCID mice by implanting human dermal microvascular endothelial cells (HMVECs) seeded in biodegradable scaffolds, as described by Nor J E, et al., Lab Invest 81: 453-63 (2001), incorporated herein by reference. These cells organize into microvessels that anastomose with the host vasculature and transport mouse blood cells. Differences in vessel density are quantified post-euthanization by standard immunohistochemical techniques using, for example, anti-human CD31, and counting the number of CD31-positive vessels in a set number of random fields.
SCID Mouse Model of Human Angiogenesis—Functional human microvessels were induced in severe combined immunodeficient (SCID) mice (CB-17 SCID; Taconic, Germantown, N.Y., USA). […]
Determination of In Vivo Microvessel Densities—Formalin fixed, paraffin-embedded implants were generated in order to quantify differences in vessel densities in the tumors of the treated and untreated animals. […] The number of CD31+blood vessels was counted in 10 random fields per sponge using an optical microscope (×400).

endothelial cells = settings: 0.3 mM, low serum conditions, data not shown
[4] = test system: age-related macular degeneration; settings: 1-2 drops of 0.1% w/v aqueous ophthalmic composition, each eye twice daily
Excerpt: A patient complaining of vision loss is diagnosed with age-related macular degeneration.

CREB, a substrate of PKA = test: Phospho-CREB western analysis; settings: HMVEC lysates; forskolin given with IBMX per FIG. 5B legend
Excerpt: Cell lysate extraction and western analysis—Cell lysates were collected, resolved by SDS-PAGE, and analyzed by western blot using anti-Phospho-CREB (Ser133) antibody or anti-tubulin antibody at a dilution of 1:1000 or anti-Rap1 at a dilution of 1:500, using standard methods as described in Kuo, W L et al., J. Biol. Chem. 279: 23073-81 (2004), incorporated herein by reference.

Method for mouse cornea: The effect of 8CPT-2Me-cAMP treatment on FGF-induced angiogenesis was investigated using the mouse corneal assay. Mice were injected with either 0.6 or 6 μmoles of 8CPT-2Me-cAMP, concentrations similar to those used for the skin implant scaffolds.

| SMILES | cell morphology (HMVECs [1]) | concentration giving complete inhibition of VEGF-stimulated migration (HMVECs [2]) | migration in the absence of VEGF (nonspecific/background migration) (HMVECs [2]; no VEGF) | Rap1 activation (GTP-bound Rap1) (Rap1) | inhibition of number of microvessels ([3]; 0.03 μmoles per implant) | inhibition of number of microvessels ([3]; 0.3 μmoles per implant) | apoptotic induction (endothelial cells) | average area of vascularization relative to control mice (mouse cornea; 0.6 μmoles) | mice with detectable vascularization (mouse cornea; 0.6 μmoles, control 6 out of 6) | FGF-induced angiogenesis (mouse cornea; 6 μmoles (higher dose)) | mice showing angiogenesis (mouse cornea; 6 μmoles, control 6 out of 6) | ocular function [4] | CREB phosphorylation (CREB, a substrate of PKA) | effect on VEGF-induced chemotaxis (HMVECs [2]) |
| --- | --- | --- | --- | --- | --- | --- | --- | --- | --- | --- | --- | --- | --- | --- |
| CO[C@@H]1[C@@H]2OP(=O)(O)OC[C@H]2O[C@H]1n1c(Sc2ccc(Cl)cc2)nc2c(N)ncnc21 [8CPT-2Me-cAMP, 8-(4-chlorophenylthio)-2′-O-methyladenosine-3′,5′cyclic monophosophate] | this effect could be mimicked | 2.5 µM | no suppression | robust stimulator | roughly 50% | greater than 90% | did not detect apoptotic induction | about half | 6 out of 8 | effectively suppressed | 1 out of 10 | noticeable improvement | did not induce significant CREB phosphorylation |  |
| C[C@@H](N)[C@H]1CC[C@H](C(=O)Nc2ccncc2)CC1 [Y-27632] |  |  |  |  |  |  |  |  |  |  |  |  |  | dose-dependent inhibition |
| O=C(Nc1ncnc2c1ncn2[C@@H]1O[C@@H]2COP(=O)(O)O[C@H]2[C@H]1O)c1ccccc1 [6-Benz-cAMP, N^6-Benzoyladenosine-3′,5′cyclic monophosphate] |  |  |  |  |  |  |  |  |  |  |  |  |  | no effect |
